The record followed here is patent publication US9765107B2, “Cyclic phosphonate substituted nucleoside derivatives and methods of use thereof for the treatment of viral diseases” (Merck Sharp & Dohme Corp., priority 2013, dated 2017).

Structures are written as SMILES.

The nature of data set [1]: Replicon activity assay (replicon RNA by real-time RT-PCR). It is filed as cell-based, HCV. To be noted: Hepatitis C virus, 72 h; replicon RNA level, three days post-dosing, 10% fetal bovine serum; read-out: Replicon (1a) EC50. For orientation: A replicon is a self-replicating genome or part of one, used to study replication in cells.
A further data set relates to replicon cells. The experiment in a line: Cytotoxicity MTS assay in replicon cells. The class given is cell-based. The settings on record: CC50, MTS assay, three days post dosing. The method, then:
To measure cell-based anti-HCV activity of the compounds of the present invention, replicon cells (1b-Con1) are seeded at 5000 cells/well in 96-well plates one day prior to treatment with a compound of the invention. Various concentrations of a test compound of the invention in DMSO are then added to the replicon cells, with the final concentration of DMSO at 0.5% and fetal bovine serum at 10% in the assay media. Cells are harvested three days post-dosing and the replicon RNA level is determined using real-time RT-PCR (Taqman assay) with GAPDH RNA as endogenous control. EC50 values are calculated from experiments with 10 serial twofold dilutions of the inhibitor in triplicate. To measure cytotoxicity in replicon cells of an inhibitor, an MTS assay is performed according to the manufacturer's protocol for CellTiter 96 Aqueous One Solution Cell Proliferation Assay (Promega, Cat #G3580) three days post dosing on cells treated identically as in replicon activity assays. CC50 is the concentration of inhibitor that yields 50% inhibition compared to vehicle-treated cells. Cytotoxicity in other types of cells can be measured using the same MTS protocol.
For orientation: Formazan colour is commonly taken as a measure of viable cells.

The EC50 is the concentration needed to bring the measured effect to its halfway point.

For `C[C@@]1(N)[C@@H]2O[P@@](=O)(OC3CCCC3)OC[C@H]2O[C@H]1n1ccc(=O)[nH]c1=O`, the half-maximal effective concentration (EC50) in data set [1] was more than 100 µM. In the data set with replicon cells, the Cytotoxicity is more than 100 µM.

With `CCC(CC)CO[P@@]1(=O)OC[C@H]2O[C@@H](n3ccc(=O)[nH]c3=O)[C@](C)(N)[C@@H]2O1`, the EC50 in data set [1] is 43.2 µM. This compound also yielded a Cytotoxicity in the data set with replicon cells of more than 100 µM.

As for `C[C@@]1(N)C2O[P@@](=O)(OC3CCC3)OC[C@H]2O[C@H]1n1ccc(=O)[nH]c1=O` (stereo partly drawn), the EC50 in data set [1] is more than 100 µM. In the data set on replicon cells, this compound displayed a Cytotoxicity of more than 100 µM.

Turning to `CCCC(CCC)CO[P@@]1(=O)OC[C@H]2O[C@@H](n3ccc(=O)[nH]c3=O)[C@](C)(N)[C@@H]2O1`, the EC50 in data set [1] was more than 100 µM. Moreover, the Cytotoxicity in the data set on replicon cells is more than 100 µM.

Regarding `CC(C)O[P@@]1(=O)OC[C@H]2O[C@@H](n3ccc(=O)[nH]c3=O)[C@](C)(N)C2O1` (stereo partly drawn), in data set [1], the concentration giving a half-maximal response (EC50) was more than 100 µM. In the data set on replicon cells, this compound gave a Cytotoxicity of more than 100 µM.

On to `C[C@@]1(N)[C@@H]2O[P@@](=O)(OCc3ccccc3)OC[C@H]2O[C@H]1n1ccc(=O)[nH]c1=O`, for which, in data set [1], the EC50 was found to be 56.2 µM. The Cytotoxicity in the data set with replicon cells is more than 100 µM.
